Experimental data reported in patent US20260240784A1, “PHARMACEUTICAL COMPOSITIONS WITH IMPROVED DISSOLUTION” (Applied Materials, Inc., priority 2023, published 2026).
Like-named read-outs stand apart in the source and are kept apart here.

What was measured:
[1] = In vivo pharmacokinetic study in Beagle dogs; conditions: dog, Beagle dogs (n=6)
in vivo = conditions: Wistar, rat, po

AUC(0-t) ([1]; read-out: AUC0-t, Arithmetic Mean): 8690 ng·h/mL
AUC(0-t) ([1]; read-out: AUC0-t, Geometric Mean): 7800 ng·h/mL
Cmax ([1]; read-out: Cmax, Arithmetic Mean): 497 ng/mL
Cmax ([1]; read-out: Cmax, Geometric Mean): 430 ng/mL
AUC (in vivo): 149000 ng·h/mL
Cmax (in vivo): 12000 ng/mL
Tmax (in vivo): 4 h
SMILES: CC(C)OC(=O)C(C)(C)Oc1ccc(C(=O)c2ccc(Cl)cc2)cc1 [uncoated particles, fenofibrate]
